ChEMBL document CHEMBL4610114, “Fragment-Based Discovery of Pyrazolopyridones as JAK1 Inhibitors with Excellent Subtype Selectivity” (J Med Chem, 2020)
pIC50: −log10 of the molar value. ≈ marks a conversion by molar mass, not a printed value.

Columns and labels:
[1] = target: T1, Tyrosine-protein kinase JAK1 (Homo sapiens, UniProt P23458)
Description: Inhibition of JAK1 in human STAT6-bla-RA1 cells assessed as reduction in IL4-induced STAT6-signalling pre-incubated for 1 hrs before human recombinant IL4 addition and further incubated for 4 hrs fluorescence based assay

[2] = target: T2, Tyrosine-protein kinase JAK2 (Homo sapiens, UniProt O60674)
[3] = target: T3, Tyrosine-protein kinase JAK3 (Homo sapiens, UniProt P52333)
T3 sequence (P52333 whole entry): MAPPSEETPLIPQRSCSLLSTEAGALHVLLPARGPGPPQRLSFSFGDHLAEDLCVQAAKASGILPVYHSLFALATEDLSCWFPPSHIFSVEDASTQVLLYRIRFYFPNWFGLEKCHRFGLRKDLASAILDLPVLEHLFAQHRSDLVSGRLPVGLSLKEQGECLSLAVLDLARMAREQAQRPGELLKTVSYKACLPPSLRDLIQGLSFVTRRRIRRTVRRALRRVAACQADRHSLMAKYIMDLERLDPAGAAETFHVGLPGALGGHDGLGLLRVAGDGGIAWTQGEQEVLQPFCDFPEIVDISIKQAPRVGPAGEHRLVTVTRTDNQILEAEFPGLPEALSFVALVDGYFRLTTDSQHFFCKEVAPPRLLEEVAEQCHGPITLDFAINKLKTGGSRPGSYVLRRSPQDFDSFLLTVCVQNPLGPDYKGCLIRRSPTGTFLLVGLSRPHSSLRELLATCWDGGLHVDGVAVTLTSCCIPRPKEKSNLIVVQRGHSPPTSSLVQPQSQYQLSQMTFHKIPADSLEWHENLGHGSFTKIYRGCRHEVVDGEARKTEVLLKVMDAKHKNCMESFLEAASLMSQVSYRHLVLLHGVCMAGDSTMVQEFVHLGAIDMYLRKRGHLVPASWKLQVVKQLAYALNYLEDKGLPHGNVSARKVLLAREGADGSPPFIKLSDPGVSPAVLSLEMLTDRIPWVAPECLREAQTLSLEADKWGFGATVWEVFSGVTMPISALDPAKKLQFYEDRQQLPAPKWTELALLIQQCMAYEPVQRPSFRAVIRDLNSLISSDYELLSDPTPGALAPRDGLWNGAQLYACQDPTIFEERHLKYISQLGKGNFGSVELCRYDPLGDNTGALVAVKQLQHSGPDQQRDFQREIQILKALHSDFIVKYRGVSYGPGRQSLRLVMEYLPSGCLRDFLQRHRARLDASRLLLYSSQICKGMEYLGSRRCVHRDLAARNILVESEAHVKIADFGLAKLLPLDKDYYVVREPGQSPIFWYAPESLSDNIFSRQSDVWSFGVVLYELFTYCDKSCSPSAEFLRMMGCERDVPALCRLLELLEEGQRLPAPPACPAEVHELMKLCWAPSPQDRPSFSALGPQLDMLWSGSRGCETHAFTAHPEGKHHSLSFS

[4] = target: T1, Tyrosine-protein kinase JAK1; remark: listed apart in the source
[5] = target: Non-receptor tyrosine-protein kinase TYK2 (Homo sapiens, UniProt P29597)
[6] = physchem; conditions: octanol/water
Description: Lipophilicity, logD of the compound by shake flask assay

[7] = physchem; conditions: PBS buffer, pH 7.4
Description: Aqueous solubility in PBS buffer at pH 7.4 by HPLC analysis

[8] = target: T2, Tyrosine-protein kinase JAK2; remark: listed apart in the source
Description: Inhibition of JAK2 in human STAT5-irf1-bla TF1 cells assessed as reduction in EPO-induced STAT5-signalling pre-incubated for 1 hrs before EPO addition and further incubated for 4 hrs fluorescence based assay

[9] = in vitro; conditions: human, liver microsomes
Description: Apparent intrinsic clearance in human liver microsomes

Chain of Non-receptor tyrosine-protein kinase TYK2 (P29597 whole entry): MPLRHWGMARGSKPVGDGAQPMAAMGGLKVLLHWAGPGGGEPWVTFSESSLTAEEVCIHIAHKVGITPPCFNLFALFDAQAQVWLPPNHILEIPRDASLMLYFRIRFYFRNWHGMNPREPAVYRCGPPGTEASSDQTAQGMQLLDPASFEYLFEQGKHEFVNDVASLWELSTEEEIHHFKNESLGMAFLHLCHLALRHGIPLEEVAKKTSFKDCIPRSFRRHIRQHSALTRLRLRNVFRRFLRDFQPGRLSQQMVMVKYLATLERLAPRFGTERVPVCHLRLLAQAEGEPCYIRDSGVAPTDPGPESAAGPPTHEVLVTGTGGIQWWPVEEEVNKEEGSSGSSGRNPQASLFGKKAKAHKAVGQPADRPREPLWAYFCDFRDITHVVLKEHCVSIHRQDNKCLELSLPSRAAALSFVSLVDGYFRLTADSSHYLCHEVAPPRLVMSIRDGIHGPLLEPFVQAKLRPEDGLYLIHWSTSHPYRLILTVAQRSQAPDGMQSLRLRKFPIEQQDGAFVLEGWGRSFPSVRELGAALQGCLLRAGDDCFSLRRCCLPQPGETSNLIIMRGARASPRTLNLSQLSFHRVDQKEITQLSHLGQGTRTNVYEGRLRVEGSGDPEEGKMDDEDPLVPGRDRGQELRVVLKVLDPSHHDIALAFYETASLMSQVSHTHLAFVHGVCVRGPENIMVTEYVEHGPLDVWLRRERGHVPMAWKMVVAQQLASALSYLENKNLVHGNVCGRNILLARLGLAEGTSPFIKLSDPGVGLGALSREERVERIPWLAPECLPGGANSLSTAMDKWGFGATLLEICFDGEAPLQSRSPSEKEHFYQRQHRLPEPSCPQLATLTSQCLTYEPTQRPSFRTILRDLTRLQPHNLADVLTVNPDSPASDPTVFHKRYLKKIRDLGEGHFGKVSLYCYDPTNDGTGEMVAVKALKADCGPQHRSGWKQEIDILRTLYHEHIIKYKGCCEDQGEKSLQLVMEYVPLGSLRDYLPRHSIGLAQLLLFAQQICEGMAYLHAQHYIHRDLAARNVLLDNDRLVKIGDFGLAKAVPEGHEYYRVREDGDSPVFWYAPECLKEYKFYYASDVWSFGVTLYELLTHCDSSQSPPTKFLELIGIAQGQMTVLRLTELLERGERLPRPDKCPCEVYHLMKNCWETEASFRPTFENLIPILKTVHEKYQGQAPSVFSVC
T2 sequence (O60674 whole entry): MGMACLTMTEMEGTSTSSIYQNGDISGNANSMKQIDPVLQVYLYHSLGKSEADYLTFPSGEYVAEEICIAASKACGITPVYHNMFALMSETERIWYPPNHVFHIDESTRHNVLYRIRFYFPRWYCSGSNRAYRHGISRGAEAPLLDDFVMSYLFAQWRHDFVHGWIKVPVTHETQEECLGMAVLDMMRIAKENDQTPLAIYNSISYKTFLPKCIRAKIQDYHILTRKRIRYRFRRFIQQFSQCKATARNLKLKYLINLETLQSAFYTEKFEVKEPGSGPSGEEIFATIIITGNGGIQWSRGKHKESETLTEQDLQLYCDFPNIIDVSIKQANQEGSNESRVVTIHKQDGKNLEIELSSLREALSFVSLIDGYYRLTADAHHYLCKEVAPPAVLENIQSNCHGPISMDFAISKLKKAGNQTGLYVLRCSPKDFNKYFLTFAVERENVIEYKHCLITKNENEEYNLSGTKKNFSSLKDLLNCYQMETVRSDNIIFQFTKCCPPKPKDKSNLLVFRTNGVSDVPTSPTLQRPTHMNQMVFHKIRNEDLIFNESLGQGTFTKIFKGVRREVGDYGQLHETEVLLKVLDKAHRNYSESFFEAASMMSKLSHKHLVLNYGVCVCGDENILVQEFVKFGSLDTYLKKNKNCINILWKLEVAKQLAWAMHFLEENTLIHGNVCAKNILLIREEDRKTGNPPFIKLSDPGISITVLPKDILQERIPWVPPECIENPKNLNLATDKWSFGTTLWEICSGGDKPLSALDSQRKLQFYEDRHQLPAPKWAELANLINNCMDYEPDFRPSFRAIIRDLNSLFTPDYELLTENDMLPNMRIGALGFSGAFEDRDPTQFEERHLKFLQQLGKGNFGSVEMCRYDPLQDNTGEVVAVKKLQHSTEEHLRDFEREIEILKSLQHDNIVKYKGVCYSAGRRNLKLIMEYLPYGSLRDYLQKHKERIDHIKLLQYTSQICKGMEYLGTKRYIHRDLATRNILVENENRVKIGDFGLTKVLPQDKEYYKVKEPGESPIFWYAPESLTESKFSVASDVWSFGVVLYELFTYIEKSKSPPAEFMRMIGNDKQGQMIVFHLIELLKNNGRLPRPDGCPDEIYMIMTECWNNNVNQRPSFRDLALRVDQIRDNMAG
T1 sequence (P23458 whole entry): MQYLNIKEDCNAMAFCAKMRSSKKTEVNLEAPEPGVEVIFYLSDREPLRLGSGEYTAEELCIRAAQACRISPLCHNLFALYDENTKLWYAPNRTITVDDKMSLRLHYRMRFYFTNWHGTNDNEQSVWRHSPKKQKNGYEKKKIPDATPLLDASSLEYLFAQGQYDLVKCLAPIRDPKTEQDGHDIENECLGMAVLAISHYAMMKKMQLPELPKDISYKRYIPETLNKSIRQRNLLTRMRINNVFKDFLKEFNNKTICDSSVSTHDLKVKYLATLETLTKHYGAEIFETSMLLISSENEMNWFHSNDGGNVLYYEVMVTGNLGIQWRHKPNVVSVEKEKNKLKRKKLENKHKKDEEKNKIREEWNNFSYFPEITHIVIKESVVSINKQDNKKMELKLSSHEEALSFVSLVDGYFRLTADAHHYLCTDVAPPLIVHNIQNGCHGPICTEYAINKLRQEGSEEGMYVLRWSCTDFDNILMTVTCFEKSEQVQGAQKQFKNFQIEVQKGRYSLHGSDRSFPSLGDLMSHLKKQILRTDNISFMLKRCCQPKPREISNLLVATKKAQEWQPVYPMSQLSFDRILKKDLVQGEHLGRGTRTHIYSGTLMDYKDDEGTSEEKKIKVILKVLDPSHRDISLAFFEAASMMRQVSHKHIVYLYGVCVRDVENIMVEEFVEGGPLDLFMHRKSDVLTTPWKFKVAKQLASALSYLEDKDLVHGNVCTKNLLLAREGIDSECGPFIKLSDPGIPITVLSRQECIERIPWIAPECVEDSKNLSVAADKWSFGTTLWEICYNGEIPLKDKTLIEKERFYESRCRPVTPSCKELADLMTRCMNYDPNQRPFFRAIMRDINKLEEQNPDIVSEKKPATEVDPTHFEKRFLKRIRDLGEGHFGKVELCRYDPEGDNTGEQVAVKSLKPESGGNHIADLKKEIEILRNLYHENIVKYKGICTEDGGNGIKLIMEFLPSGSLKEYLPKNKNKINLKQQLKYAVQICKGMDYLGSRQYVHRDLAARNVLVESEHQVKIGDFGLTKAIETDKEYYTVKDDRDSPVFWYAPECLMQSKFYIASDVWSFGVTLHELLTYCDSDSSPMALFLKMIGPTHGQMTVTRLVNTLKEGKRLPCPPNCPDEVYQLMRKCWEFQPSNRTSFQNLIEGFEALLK

SMILES | pIC50 [1] | pIC50 [2] | pIC50 [3] | pIC50 [4] | pIC50 [5] | logD [6] | solubility [7] | pIC50 [8] | CLint scaled [9]
O=c1cc(C2CCCCC2)c2c[nH]nc2[nH]1 | < 4.30 | 4.46 | 4.92 | 4.82 | 4.62 |  |  |  | 
Cc1[nH]nc2[nH]c(=O)c(CCO)c(C3CCCCC3)c12 | 5.07 | 5.41 | 6.00 | 6.31 | 5.47 | 2.6 | 11 µM (≈ 3.03 µg/mL) | < 4.40 | 
Cc1[nH]nc2[nH]c(=O)cc([C@H]3CC[C@H](C(=O)NC4CC4)CC3)c12 | < 4.40 | 5.03 | 5.96 | 5.70 | 4.85 |  |  | < 4.40 | 
Cc1[nH]nc2[nH]c(=O)cc([C@H]3CC[C@H](OC(=O)[C@@H]4CC4(F)F)CC3)c12 | 6.38 | 6.92 | 7.04 | 7.85 |  |  | 3 µM (≈ 1.05 µg/mL) | < 4.60 | 
Cc1[nH]nc2[nH]c(=O)cc([C@H]3CC[C@H](O)CC3)c12 | 4.70 |  | 5.77 | 6.31 | 5.38 | 0.8 | > 85 µM |  | 
Cc1[nH]nc2[nH]c(=O)cc(CC3CCC3)c12 | 5.47 | 6.24 | 6.32 | 6.92 | 5.96 | 2.2 | 16 µM (≈ 3.48 µg/mL) | < 4.40 | 
Cc1[nH]nc2[nH]c(=O)cc([C@H]3CC[C@H](CCC#N)CC3)c12 | 5.92 | 6.80 | 6.55 | 7.49 |  | 1.8 | 18 µM (≈ 5.12 µg/mL) | 4.89 | 
Cc1[nH]nc2[nH]c(=O)cc([C@H]3CC[C@H](CC(=O)N4CCC(c5ccccc5)C4)CC3)c12 (mixture of isomers) | 6.96 | 7.72 | 7.20 | 8.68 |  | 3 |  | 5.62 | 75 mL/min/kg
Cc1[nH]nc2[nH]c(=O)cc([C@H]3CC[C@H](C#N)CC3)c12 |  |  | 4.96 | 6.14 |  |  |  |  | 
Cc1[nH]nc2[nH]c(=O)cc(C3CCCCC3)c12 | 5.43 | 5.89 | 6.26 | 6.89 | 6.17 | 2.8 | 4 µM (≈ 0.925 µg/mL) | < 4.40 | 
Cc1[nH]nc2[nH]c(=O)cc([C@H]3CC[C@H](CC(=O)N4CCC(C)(C)CC4)CC3)c12 | 6.96 | 7.49 | 7.24 | 8.47 |  | 2.9 |  | 5.47 | 70 mL/min/kg
Cc1[nH]nc2[nH]c(=O)cc(C3CCCC3)c12 | 5.37 | 4.89 | 6.17 | 7.14 | 6.08 | 2.2 | 39 µM (≈ 8.47 µg/mL) | < 4.40 | 
Cc1[nH]nc2[nH]c(=O)cc([C@H]3CC[C@H](NC(=O)C4CC4)CC3)c12 | < 4.85 | 5.68 | 5.15 | 6.66 | 5.55 | 1.2 | 22 µM (≈ 6.92 µg/mL) | < 4.85 | 
Cc1[nH]nc2[nH]c(=O)cc([C@H]3CC[C@H](NC(=O)[C@@H]4CC4(F)F)CC3)c12 | 5.77 | 6.92 | 6.32 | 8.19 | 6.66 | 1.3 | 43 µM (≈ 15.1 µg/mL) | < 5.15 | 
Cc1[nH]nc2[nH]c(=O)cc([C@H]3CCCC[C@H]3C)c12 (racemic) | 5.89 | 6.47 | 6.96 | 7.40 | 6.15 | 3 | 8 µM (≈ 1.96 µg/mL) | 5.05 | 
Cc1[nH]nc2[nH]c(=O)cc([C@H]3CC[C@H](NC(=O)[C@H]4CC4(F)F)CC3)c12 | < 4.40 | 5.77 | 5.57 | 7.11 | 5.57 | 1.3 | 29 µM (≈ 10.2 µg/mL) | < 4.40 | 
CCCS(=O)(=O)N[C@H]1C[C@@H](N(C)c2ncnc3[nH]ccc23)C1 [ABROCITINIB] |  |  |  |  |  | 2 |  |  | 
O=c1cc(C2CCCCC2)c2c(C3CC3)[nH]nc2[nH]1 | 5.74 | 5.89 | 6.01 | 6.30 | 5.80 | 3.1 |  | < 4.40 | 

SMILES | pIC50 [1] | pIC50 [2] | pIC50 [3] | pIC50 [4] | pIC50 [5] | logD [6] | solubility [7] | pIC50 [8] | CLint scaled [9]
Cc1cc(O)nc2c1c(C)nn2C |  |  |  | < 3.05 |  |  |  |  | 
Cc1[nH]nc2[nH]c(=O)cc([C@H]3C[C@H]4CC[C@@H]3C4)c12 (racemic) | 6.07 | 6.37 | 6.62 | 7.34 | 6.37 | 2.8 | 64 µM (≈ 15.6 µg/mL) | 4.66 | 
Cc1[nH]nc2[nH]c(=O)cc([C@@H]3C[C@H]4CC[C@@H]3C4)c12 (racemic) | 6.00 | 6.42 | 6.74 | 7.36 | 6.82 | 2.7 | 33 µM (≈ 8.03 µg/mL) | < 4.40 | 
Cc1[nH]nc2[nH]c(=O)cc([C@H]3CC[C@H](N)CC3)c12 | < 4.40 | 4.74 | 4.96 | 6.09 | 4.80 |  |  | < 4.40 | 
Cc1[nH]nc2[nH]c(=O)cc([C@H]3CC[C@H](CC#N)CC3)c12 | 5.92 | 6.44 | 6.57 | 7.40 | 6.89 | 1.5 | 59 µM (≈ 15.9 µg/mL) | < 4.40 | 
Cc1[nH]nc2[nH]c(=O)cc(C3CC4CCC3CC4)c12 (racemic) | 6.05 | 6.48 | 7.19 | 7.27 | 6.66 | 3.3 | 8 µM (≈ 2.06 µg/mL) | 5.04 | 
CCc1[nH]nc2[nH]c(=O)cc(C3CCCCC3)c12 | 5.60 | 5.57 | 5.80 | 6.34 |  | 3 |  | < 4.40 | 
Cc1[nH]nc2[nH]c(=O)c(CO)c(C3CCCCC3)c12 | 5.32 | 5.55 | 5.85 | 6.85 | 6.19 | 2.1 | 100 µM (≈ 26.1 µg/mL) | < 4.40 | 
Cc1[nH]nc2[nH]c(=O)cc([C@H]3CC[C@H](NC(=O)C4CCCC4)CC3)c12 | 5.04 | 5.80 | 5.32 | 6.96 | 5.17 |  |  | < 4.52 | 
Cc1cc(=O)[nH]c2nn(C)c(C)c12 |  |  |  | < 3.30 |  |  |  |  | 
Cc1[nH]nc2[nH]c(=O)cc(-c3ccccc3)c12 | < 4.30 | 5.38 | 5.59 | 5.66 | 5.41 | 2.2 | > 90 µM |  | 
Cc1[nH]nc2[nH]c(=O)cc([C@H]3CC[C@H](CC(=O)N4CC(Cc5ccccc5)C4)CC3)c12 | 6.60 |  | 7.06 | 8.52 |  | 3 | 2.4 µM (≈ 1 µg/mL) |  | 87 mL/min/kg
Cc1[nH]nc2[nH]c(=O)cc([C@@H]3C[C@@H]4C[C@H]3C[C@H]4CC#N)c12 |  | 7.03 | 6.38 |  | 6.74 |  |  | 4.82 | 
Cc1[nH]nc2[nH]c(=O)cc([C@H]3CC[C@H](NS(=O)(=O)CC4CCC4)CC3)c12 | 5.49 | 6.24 | 5.77 | 7.40 |  |  |  | < 5.00 | 
Cc1[nH]nc2[nH]c(=O)c(C#N)c(C3CCCCC3)c12 | 4.70 | 4.77 | 5.27 | 5.68 | 4.96 |  |  | < 4.40 | 
Cc1cc(=O)[nH]c2n[nH]c(C)c12 |  |  |  | 4.52 |  |  |  |  | 
Cc1[nH]nc2[nH]c(=O)cc([C@H]3CC[C@H](NS(=O)(=O)C4CC4)CC3)c12 |  | 5.60 | 5.18 | 6.40 |  |  |  |  | 
O=c1cc(C(F)F)c2c[nH]nc2[nH]1 |  |  |  | < 4.00 |  |  |  |  | 
